The results in this text go back to ChEMBL document CHEMBL1201862, “PubChem BioAssay data set” (2004).

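Cultured in 96-well plates, cells were exposed to test compound for 48 hours across five concentrations. At the GI50, growth is halved.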 The source made the active and inactive calls. Rule as the data show it: active = GI50 up to about 1.1 µM and inactive = higher.

Some test systems named below: PC-3; CAKI-1; RXF 393; KM12; HCC 2998; SK-OV-3; SF-539; TK-10; SK-MEL-5; ACHN; HCT-15; SK-MEL-28; NCI-H460; MCF7; OVCAR-4; UACC-62; T47D; IGROV-1; HL-60; OVCAR-3.
Holding throughout (experiment): NCI tumour cell line growth inhibition, 48 h

On to `CC(=O)C(C(=O)c1ccc(C)cc1)[C@H]1OC(C)(C)O[C@H]1[C@H]1COC(C)(C)O1` (stereo partly specified), for which the GI50 is 2.55 µM (inactive) in the test on PC-3; 5.38 µM (inactive) in the test with CAKI-1; 2.69 µM (inactive) in the test on RXF 393; 8.75 µM (inactive) in the test with KM12; 7.24 µM (inactive) in the test with HCC 2998; 10.3 µM (inactive) in the test with SK-OV-3. Besides, the GI50 in the test with SF-539 was 1.87 µM (inactive); in the test on TK-10 it was 7.73 µM (inactive); in the test with SK-MEL-5 it was 5.08 µM (inactive); with ACHN, 6.15 µM (inactive); in the test on HCT-15, 2.99 µM; in the test on SK-MEL-28, 6.18 µM (inactive). The GI50 with NCI-H460 is 7.05 µM (inactive); in the test with MCF7 it was 1.97 µM (inactive); in the test on OVCAR-4, 2.53 µM (inactive); in the test on UACC-62 it was 6.1 µM (inactive); in the test with T47D, 6.53 µM (inactive); in the test with IGROV-1, 3.17 µM (inactive).

`COP(=O)(OC)C(O)CC(C)C` (stereo unspecified): the GI50 in the test on PC-3, with CAKI-1, with RXF 393, with KM12, in the test with HCC 2998 and with SK-OV-3 was > 100 µM (inactive) in each case. Besides, the GI50 with HL-60, in the test with TK-10, with SK-MEL-5, in the test on ACHN, in the test with SK-MEL-28 and in the test with NCI-H460 was > 100 µM (inactive) throughout. For the same compound, the GI50 with MCF7, with OVCAR-4, with UACC-62, with OVCAR-3 and with T47D was > 100 µM (inactive) in each case.

As for `CN(C)/C=N/S(=O)(=O)c1nn2c(C=O)c(-c3ccccc3)nc2s1`, the GI50 in the test on PC-3 was 14.1 µM (inactive); with CAKI-1, 0.658 µM (active); with RXF 393, 13 µM (inactive); in the test with KM12, 22.6 µM (inactive); in the test with HCC 2998 it was 36.1 µM (inactive); with SK-OV-3, > 80.5 µM (inactive). Further, the GI50 is 17.7 µM (inactive) in the test on SF-539; 12.9 µM (inactive) in the test with TK-10; 11.5 µM (inactive) with SK-MEL-5; 5.65 µM (inactive) in the test with ACHN; 9.46 µM with HCT-15; 9.2 µM (inactive) in the test on SK-MEL-28. Besides, the GI50 with NCI-H460 was 20.8 µM (inactive); in the test with MCF7, 4.93 µM (inactive); in the test on OVCAR-4 it was 22.7 µM (inactive); with UACC-62 it was 18.2 µM (inactive); in the test with OVCAR-3, 8.32 µM (inactive); in the test with T47D, 15.7 µM (inactive).

Regarding `CC(C)(C)OC(=O)NCCCCC(N)C(N)=O` (stereo unspecified), the GI50 is > 100 µM (inactive) with PC-3; > 100 µM (inactive) in the test with CAKI-1; > 100 µM (inactive) with RXF 393; > 100 µM (inactive) in the test on KM12; > 100 µM (inactive) in the test on HCC 2998; 54.7 µM (inactive) in the test with SK-OV-3. Also, the GI50 in the test on SF-539 was > 100 µM (inactive); with TK-10, > 100 µM (inactive); with SK-MEL-5, 78.7 µM (inactive); with ACHN it was > 100 µM (inactive); in the test on HCT-15 it was more than 100 µM; with SK-MEL-28 it was > 100 µM (inactive). For the same compound, the GI50 is > 100 µM (inactive) in the test with NCI-H460; > 100 µM (inactive) in the test on MCF7; > 100 µM (inactive) in the test on OVCAR-4; 7.46 µM (inactive) with UACC-62; > 100 µM (inactive) in the test with OVCAR-3; > 100 µM (inactive) in the test with T47D. Besides, the GI50 in the test with IGROV-1 was > 100 µM (inactive).

Take `C=CCN(c1cc(OC)c(NC(C)=O)cc1[N+](=O)[O-])S(C)(=O)=O`: the GI50 in the test with PC-3, in the test on CAKI-1, in the test with RXF 393, in the test on KM12, in the test with HCC 2998 and in the test on SK-OV-3 was > 100 µM (inactive) throughout. The GI50 in the test with HL-60 is > 100 µM (inactive); with TK-10 it was > 100 µM (inactive); in the test with SK-MEL-5, > 100 µM (inactive); in the test with ACHN, > 100 µM (inactive); with HCT-15, more than 100 µM; in the test on SK-MEL-28, > 100 µM (inactive). The GI50 in the test with NCI-H460, in the test with MCF7, in the test on OVCAR-4, in the test with UACC-62, in the test on OVCAR-3 and in the test with T47D was > 100 µM (inactive) each time. The GI50 in the test on IGROV-1 is > 100 µM (inactive).

Turning to `CC(C)CC(O)P(=O)(O)O.NC1CCCCC1` (stereo unspecified), the GI50 in the test on PC-3, with CAKI-1, in the test with RXF 393, with KM12, in the test on HCC 2998 and in the test on SK-OV-3 was > 100 µM (inactive) in each case. Further, the GI50 in the test with HL-60, in the test with TK-10, with SK-MEL-5, in the test with ACHN, in the test with SK-MEL-28 and in the test with NCI-H460 was > 100 µM (inactive) throughout. In addition, the GI50 in the test with MCF7, with OVCAR-4, in the test with UACC-62, with OVCAR-3 and with T47D was > 100 µM (inactive) in each case.

In the case of `COc1ccc(/C=c2/sc3n(c2=O)C(c2ccccc2)C2(O)CCCCC2N=3)cc1` (stereo unspecified), the GI50 with PC-3, with CAKI-1, in the test on HCC 2998, in the test on HL-60, in the test with TK-10 and in the test with SK-MEL-5 was > 12.5 µM (inactive) each time. Further, the GI50 in the test with ACHN, in the test with SK-MEL-28, in the test on NCI-H460, with MCF7, in the test with OVCAR-4 and with UACC-62 was > 12.5 µM (inactive) each time. For the same compound, the GI50 in the test with OVCAR-3, with T47D and with IGROV-1 was > 12.5 µM (inactive) in each case.

As to `Cc1ncc([N+](=O)[O-])n1CCNC(=O)Cn1c([N+](=O)[O-])cnc1C`, the GI50 with PC-3, with CAKI-1, in the test on KM12, in the test with HCC 2998, in the test with SK-OV-3 and in the test with HL-60 was > 100 µM (inactive) throughout. Also, the GI50 in the test on SF-539 is > 100 µM (inactive); in the test on TK-10, > 100 µM (inactive); in the test on SK-MEL-5 it was > 100 µM (inactive); in the test on ACHN, > 100 µM (inactive); with HCT-15, more than 100 µM; in the test with SK-MEL-28 it was > 100 µM (inactive). In addition, the GI50 in the test on NCI-H460, in the test with MCF7, in the test on UACC-62, in the test with OVCAR-3, in the test on T47D and in the test with IGROV-1 was > 100 µM (inactive) throughout.

On to `Clc1ncnc(Cl)c1Cl`, for which the GI50 in the test on PC-3, in the test with CAKI-1, in the test with RXF 393, with KM12, with HCC 2998 and in the test with SK-OV-3 was > 100 µM (inactive) throughout. For the same compound, the GI50 in the test on SF-539 is > 100 µM (inactive); with TK-10, > 100 µM (inactive); in the test with SK-MEL-5, > 100 µM (inactive); with ACHN it was > 100 µM (inactive); in the test with HCT-15, more than 100 µM; in the test on SK-MEL-28, > 100 µM (inactive). In addition, the GI50 in the test on NCI-H460, in the test with MCF7, with OVCAR-4, with UACC-62, in the test with OVCAR-3 and in the test with T47D was > 100 µM (inactive) throughout. Also, the GI50 in the test with IGROV-1 was > 100 µM (inactive).

Regarding `S=c1[nH]n2c(CCCCCCCCc3nnc4sc(=S)[nH]n34)nnc2s1`, the GI50 with PC-3, in the test on CAKI-1, in the test on KM12, in the test with HCC 2998, with SK-OV-3 and in the test with HL-60 was > 100 µM (inactive) in each case. Also, the GI50 is > 100 µM (inactive) with SF-539; > 100 µM (inactive) in the test with ACHN; more than 100 µM with HCT-15; > 100 µM (inactive) in the test on SK-MEL-28; > 100 µM (inactive) with NCI-H460; > 100 µM (inactive) in the test on MCF7. The GI50 with OVCAR-4, in the test on UACC-62, in the test with OVCAR-3, with T47D and in the test with IGROV-1 was > 100 µM (inactive) each time.

With `O=C1c2cccc(O)c2C(=O)c2c(OC3OC(CO)C(O)C(O)C3O)cccc21` (stereo unspecified), the GI50 is 24.5 µM (inactive) in the test on PC-3; 55.5 µM (inactive) in the test on CAKI-1; 26 µM (inactive) in the test with RXF 393; 30.3 µM (inactive) in the test with KM12; 24.8 µM (inactive) with HCC 2998; 48.2 µM (inactive) with SK-OV-3. The GI50 in the test on SF-539 is 25.5 µM (inactive); with TK-10, 40.4 µM (inactive); in the test with SK-MEL-5, 16.5 µM (inactive); in the test with ACHN, 61.7 µM (inactive); in the test with HCT-15, 20.6 µM; in the test with SK-MEL-28, > 100 µM (inactive). Further, the GI50 in the test on NCI-H460 is 17.9 µM (inactive); in the test with MCF7 it was 30.1 µM (inactive); in the test with OVCAR-4 it was 16.1 µM (inactive); with UACC-62 it was 49.8 µM (inactive); in the test with OVCAR-3, 31.4 µM (inactive); with T47D, 20.4 µM (inactive). The GI50 in the test on IGROV-1 is 39.2 µM (inactive).
